Tested on: seeds of Striga (Striga hermonthica)
Assay: Germination inhibition test of Striga seeds
Assay type: in vivo
Method: The coadministration of the GR24 or the GR24 and the compound 25 was performed on seeds of Striga (Striga hermonthica) pretreated for one week at 30° C. The GR24 treatment was performed with 0.1 μM, and the compound 25 treatment was performed with 50 μM or 100 μM.

CC1=CC(O/C=C2/C(=O)O[C@@H]3c4ccccc4C[C@H]23)OC1=O (some centres unmarked) [GR24]
germination of the Striga seeds (GR24 0.1 μM added): germination of the Striga seeds is accelerated | Germination rate of striga seed (GR24 0.1 μM alone, compound 25 0 μM): 30.92%
